# Reference: the supplement of paper PMC10307832
# What was measured:
# Assay in all cases: relative viability (nuclei count vs DMSO), 5 days (fraction); higher = more cells survive
# [1] = compound: NC(=O)[C@@H](CCC(F)(F)F)N(Cc1ccc(-c2ncon2)cc1F)S(=O)(=O)c1ccc(Cl)cc1 [Avagacestat] + N=C(N)NC(=N)NCCc1ccccc1 [Phenformin] (partner 250 µM)
# In short: (§1)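 After 5 days of treatment, lung cancer cells in 1536-well plates were fixed and stained in a single step (final 0.05% Triton X-100, 1% formaldehyde, 1 ug/ml Hoechst) and their nuclei counted on 4× images. Treatment had been applied by pin tool the day after seeding as one drug alone or as a fixed anchor-drug dose with five library-drug doses (not always all listed) in √10 steps. Relative viability is the nuclei count of treated wells divided by that of vehicle wells, and values are medians of duplicate plates.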
# [2] = compound: NC(=O)[C@@H](CCC(F)(F)F)N(Cc1ccc(-c2ncon2)cc1F)S(=O)(=O)c1ccc(Cl)cc1 [Avagacestat] + COc1cccc2cc(-c3nc([C@H]4CC[C@H](C(=O)O)CC4)n4ncnc(N)c34)[nH]c12 [OSI-027] (partner 0.5 µM)
# In short: as §1
# [3] = compound: NC(=O)[C@@H](CCC(F)(F)F)N(Cc1ccc(-c2ncon2)cc1F)S(=O)(=O)c1ccc(Cl)cc1 [Avagacestat] + CC(=O)Nc1cccc(-n2c(=O)n(C3CC3)c(=O)c3c(Nc4ccc(I)cc4F)n(C)c(=O)c(C)c32)c1 [Trametinib] (partner 0.02 µM)
# In short: as §1
# [4] = compound: NC(=O)[C@@H](CCC(F)(F)F)N(Cc1ccc(-c2ncon2)cc1F)S(=O)(=O)c1ccc(Cl)cc1 [Avagacestat] + C[C@@H](Oc1cc(-c2cnn(C3CCNCC3)c2)cnc1N)c1c(Cl)ccc(F)c1Cl [Crizotinib] (partner 1 µM)
# In short: as §1
Cell Line,relative viability ([1]; first compound 0.08 µM),relative viability ([1]; first compound 0.253 µM),relative viability ([1]; first compound 0.8 µM),relative viability ([1]; first compound 2.53 µM),relative viability ([1]; first compound 8 µM),relative viability ([2]; first compound 0.08 µM),relative viability ([2]; first compound 0.253 µM),relative viability ([2]; first compound 0.8 µM),relative viability ([2]; first compound 2.53 µM),relative viability ([2]; first compound 8 µM),relative viability ([3]; first compound 0.08 µM),relative viability ([3]; first compound 0.253 µM),relative viability ([3]; first compound 0.8 µM),relative viability ([3]; first compound 2.53 µM),relative viability ([3]; first compound 8 µM),relative viability ([4]; first compound 0.08 µM),relative viability ([4]; first compound 0.253 µM),relative viability ([4]; first compound 0.8 µM),relative viability ([4]; first compound 2.53 µM),relative viability ([4]; first compound 8 µM)
LCLC-103H,0.344,0.298,0.348,0.343,0.294,0.488,0.531,0.438,0.409,0.406,0.721,0.726,0.772,0.567,0.61,1.03,1.09,1.01,0.967,0.831
LK-2,0.6,0.36,0.32,0.384,0.375,0.189,0.206,0.162,0.181,0.212,1.02,0.917,0.651,–,0.747,0.241,0.206,0.249,0.282,0.235
LOU-NH91,0.708,0.652,0.862,0.717,0.754,0.688,0.656,0.789,0.723,0.716,0.877,0.801,0.839,0.765,0.765,0.739,0.725,0.732,0.73,0.761
LU99A,0.867,0.944,0.923,0.821,0.902,0.285,0.28,0.278,0.286,0.266,0.515,0.485,0.555,0.485,0.534,0.521,0.646,0.571,0.595,0.628
LXF-289,0.516,0.505,0.495,0.495,0.476,0.817,0.757,0.703,0.673,0.804,0.725,0.656,0.767,0.659,0.636,0.852,0.941,0.795,0.816,0.774
NCI-H23,0.941,0.86,0.761,0.859,0.851,0.778,0.619,0.8,0.627,0.537,0.43,0.261,0.392,0.414,0.4,0.547,0.473,0.627,0.471,0.345
NCI-H322M,0.733,0.748,0.712,0.69,0.65,0.519,0.562,0.571,0.501,0.488,0.48,0.457,0.343,0.465,0.443,0.874,1.03,0.952,0.934,0.787
